The values that follow come from patent publication US20240158466A1, “PEGYLATED P-SELECTIN INHIBITORS” (Beth Israel Deaconess Medical Center, Inc., priority 2021, published 2024).

Data set [1] addresses T1, P-selectin (Homo sapiens, UniProt P16109).
T1 sequence (P16109 42-830): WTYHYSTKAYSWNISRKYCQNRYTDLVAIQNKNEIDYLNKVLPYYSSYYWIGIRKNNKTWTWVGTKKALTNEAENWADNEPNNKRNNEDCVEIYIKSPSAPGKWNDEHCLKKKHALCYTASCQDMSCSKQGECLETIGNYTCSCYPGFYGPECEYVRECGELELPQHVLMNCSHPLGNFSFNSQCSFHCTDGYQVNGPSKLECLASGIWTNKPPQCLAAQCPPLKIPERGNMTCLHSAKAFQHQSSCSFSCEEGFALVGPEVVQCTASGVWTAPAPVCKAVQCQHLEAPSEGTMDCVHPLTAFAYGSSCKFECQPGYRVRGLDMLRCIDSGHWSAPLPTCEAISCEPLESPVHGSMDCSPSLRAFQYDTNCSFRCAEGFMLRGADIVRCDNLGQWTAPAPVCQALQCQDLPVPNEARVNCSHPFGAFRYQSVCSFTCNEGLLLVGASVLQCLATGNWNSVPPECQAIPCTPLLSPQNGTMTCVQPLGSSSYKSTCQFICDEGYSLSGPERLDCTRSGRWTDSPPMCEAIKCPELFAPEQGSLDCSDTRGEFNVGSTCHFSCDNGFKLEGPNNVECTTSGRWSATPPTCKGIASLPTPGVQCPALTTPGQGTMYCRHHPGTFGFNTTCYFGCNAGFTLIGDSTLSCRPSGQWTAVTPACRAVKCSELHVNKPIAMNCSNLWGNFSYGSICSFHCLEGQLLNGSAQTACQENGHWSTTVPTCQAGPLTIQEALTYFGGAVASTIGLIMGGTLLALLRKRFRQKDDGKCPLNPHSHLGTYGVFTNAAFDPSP
To be noted: synthetic P-selectin antagonists, literature refs 48,49; cited from earlier work.

The next data set relates to vein recanalization. To be noted: primate models; cited from earlier work.
In data set [2] the test system is platelet-monocyte aggregation. The note with it: humans; cited from earlier work.
A further data set relates to vein wall injury. To be noted: rats; cited from earlier work.
For the next data set, the system named is thrombus. To be noted: mice; cited from earlier work.
Data set [3] concerns the target P-selectin on activated human platelets (human) (UniProt P16109). The experiment in a line: cell-based or functional assay.
For data set [4], the target named is P-selectin on activated mouse platelets (mouse) (UniProt Q01102). Description: cell-based or functional assay.
Sequence of P-selectin on activated mouse platelets (mouse) (Q01102 42-768): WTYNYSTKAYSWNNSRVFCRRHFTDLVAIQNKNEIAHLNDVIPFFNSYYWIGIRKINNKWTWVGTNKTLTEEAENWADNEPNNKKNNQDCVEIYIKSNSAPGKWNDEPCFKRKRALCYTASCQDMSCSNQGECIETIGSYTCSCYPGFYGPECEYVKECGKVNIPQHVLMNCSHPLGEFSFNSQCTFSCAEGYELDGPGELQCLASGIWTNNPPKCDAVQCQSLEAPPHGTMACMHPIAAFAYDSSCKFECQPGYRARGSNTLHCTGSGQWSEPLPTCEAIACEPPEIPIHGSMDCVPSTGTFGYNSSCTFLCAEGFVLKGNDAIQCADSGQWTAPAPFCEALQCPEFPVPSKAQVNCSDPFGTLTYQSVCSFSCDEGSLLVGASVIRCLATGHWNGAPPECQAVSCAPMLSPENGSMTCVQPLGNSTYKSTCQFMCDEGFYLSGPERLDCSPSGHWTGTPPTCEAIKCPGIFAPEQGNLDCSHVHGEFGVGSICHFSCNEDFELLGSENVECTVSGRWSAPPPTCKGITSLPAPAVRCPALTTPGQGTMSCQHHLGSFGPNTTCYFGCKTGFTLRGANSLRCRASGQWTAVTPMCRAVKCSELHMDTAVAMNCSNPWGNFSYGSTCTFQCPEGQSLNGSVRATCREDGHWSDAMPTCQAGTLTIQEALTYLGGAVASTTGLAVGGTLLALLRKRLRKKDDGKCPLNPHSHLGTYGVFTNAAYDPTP
The next data set concerns venous thrombus. The experiment in a line: Murine model of non-occlusive venous thrombosis (electrolytic injury of inferior vena cava). It is filed as in vivo, C57BL/6 mice. The method, then: Enoxaparin was administered subcutaneously (6 mg/kg) 4 hours prior and 24 hours after electrolytic injury as a clinically relevant control. […] Venous side branches were ligated or cauterized, while posterior branches were left patent. A 25-gauge stainless steel needle, attached to a silver-coated copper wire was inserted into the exposed caudal vena cava and positioned against the anterior wall (anode). A second wire was implanted subcutaneously to complete the circuit (cathode) and a 250 μAmps current applied for 15 min. Subsequently, the needle was removed and a cotton swab held in gentle contact with the puncture site to prevent bleeding. The vena cava and associated thrombus, immediately below the renal veins to just above the bifurcation, was excised 48 hours after injury for determination of wet thrombus weight and histological examination. Specimens were fixed overnight in 10% neutral buffered formalin, processed for paraffin embedding, and 5 μm sections stained with hematoxylin and eosin (H&E) or antibodies specific to neutrophils (Ly-6G, BD Biosciences) and monocytes (CD68, Abeam, Cambridge, MA). The circumference of the vein wall was imaged at 20× magnification and leukocyte infiltration was quantified in 3 representative animals/group, 5 to 10 sections/tissue sample.

For another data set, the system named is hemostasis. Description: Tail vein transection bleeding time. Format: in vivo, mouse. To be noted: PG-6 8 μmol/kg or enoxaparin (LMWH) 6 mg/kg intravenous, 5 min prior to transection. As for the experimental part:
Hemostasis was assessed using a tail vein transection model to determine bleeding time.^63 Mice were anesthetized with ketamine and xylazine by intraperitoneal injection and placed on a warming mat at 37° C. Sterile saline, enoxaparin (6 mg/kg), or PG-6 in 125 μL of sterile saline was injected into the penile vein. Five minutes after administration of test compound, the lateral tail vein was transected with a number 11 scalpel blade at a tail width of 2.3 mm and immediately submerged in 37° C. phosphate buffered saline. The bleeding time was determined at that instant when bleeding had ceased for 30 seconds. Animals were excluded if arterial bleeding was present.

For data set [5], the target named is T1, P-selectin. The note with it: cited from earlier work.
The conditions of data set [6]: high affinity biologics; cited from earlier work.

Regarding `C[C@@H]1O[C@@H](O[C@@H]2[C@@H](NC(=O)c3cc(=O)[nH]c(=O)[nH]3)C[C@@H](C(=O)NCCNC(=O)COCCOCC(=O)Nc3cc(S(=O)(=O)O)cc4cc(S(=O)(=O)O)cc(S(=O)(=O)O)c34)C[C@H]2O[C@@H]2O[C@H](CO)[C@H](O)[C@H](O[C@@H](CC3CCCCC3)C(=O)O)[C@H]2OC(=O)c2ccccc2)[C@@H](O)[C@H](O)[C@@H]1O` [GMI-1070], the IC50 at P-selectin [1] was 423 µM.

For `O=C(O)c1c(O)c(C2(c3ccc(Cl)cc3)CC2)nc2c(C(F)(F)F)cccc12` [PSI-421, 2-[1-(4-chlorophenyl)cyclopropyl]-3-hydroxy-8-(trifluoromethyl)quinoline-4-carboxylic acid], the vein recanalization entry with vein recanalization is reported as “enhanced”.

Regarding `O=C(O)c1c(O)c(Cc2ccc(Cl)cc2)nc2c3c(ccc12)CCCC3` [PSI-697], the “inhibition of platelet-monocyte aggregation in a phase I trial” value in data set [2] is recorded as “failed to inhibit”. In the data set with vein wall injury, the “wall stiffness, neointima formation, extravasation of inflammatory cells” value is “decreased”. Also, the thrombus weight result in the data set on thrombus was “reduced”. In addition, the vein recanalization entry in the data set with vein recanalization is listed as “enhanced”.

Turning to PEG40-GSnP-6 (PG-6) (peptide), in [3], the human platelet-monocyte aggregates (flow cytometry, whole blood, PG-6 120 uM) was 29 % reduction and the human platelet-neutrophil aggregates (flow cytometry, whole blood, PG-6 120 uM) was determined as 42 % reduction. In data set [4], the murine platelet-monocyte aggregates (flow cytometry, whole blood, PG-6 120 uM) was 45 % reduction and the murine platelet-neutrophil aggregates (flow cytometry, whole blood, PG-6 120 uM) is 38 % reduction.

enoxaparin: the “thrombus formation / thrombus weight vs saline vehicle” value in the data set on venous thrombus (48 h after electrolytic injury, PG-6 8 μmol/kg IV, LMWH 6 mg/kg SC) is reported as “significant reduction”. For the same molecule, the “infiltrating CD68+ macrophages in vein wall” value in the data set with venous thrombus (48 h after thrombus induction) is reported as “significant reduction”. Further, the “infiltrating Ly6G+ neutrophils in vein wall” value with venous thrombus (48 h after thrombus induction) is given as “significant reduction”. Moreover, the “tail vein transection bleeding time” value is “prolonged” in the data set with hemostasis and “significant increase” in the data set on hemostasis (listed as LMWH).

B1: PSGL-1: P-selectin glycoprotein ligand-1, native cognate ligand of P-selectin (protein, UniProt Q14242 42-412, looked up)
P-selectin glycoprotein …: QATEYEYLDYDFLPETEPPEMLRNSTDTTPLTGPGTPESTTVEPAARRSTGLDAGGAVTELTTELANMGNLSTDSAAMEIQTTQPAATEAQTTQPVPTEAQTTPLAATEAQTTRLTATEAQTTPLAATEAQTTPPAATEAQTTQPTGLEAQTTAPAAMEAQTTAPAAMEAQTTPPAAMEAQTTQTTAMEAQTTAPEATEAQTTQPTATEAQTTPLAAMEALSTEPSATEALSMEPTTKRGLFIPFSVSSVTHKGIPMAASNLSVNYPVGAPDHISVKQCLLAILILALVATIFFVCTVVLAVRLSRKGHMYPVRNYSPTEMVCISSLLPDGGEGPSATANGGLSKAKSPGLTPEPREDREGDDLTLHSFLP
Take B1: the Kd with P-selectin [5] (reported values) is 70 to 300 nM.

B2: crizanlizumab: the only approved P-selectin inhibitor, an antibody (antibody, chains of the INN, looked up, V domains shown)
VH: QVQLVQSGAEVKKPGASVKVSCKVSGYTFTSYDINWVRQAPGKGLEWMGWIYPGDGSIKYNEKFKGRVTMTVDKSTDTAYMELSSLRSEDTAVYYCARRGEYGNYEGAMDYWGQGTLVTVSS
VL: DIQMTQSPSSLSASVGDRVTITCKASQSVDYDGHSYMNWYQQKPGKAPKLLIYAASNLESGVPSRFSGSGSGTDFTLTISSLQPEDFATYYCQQSDENPLTFGGGTKVEIK
For B2, the “Kd for P-selectin (in words)” value with P-selectin [5] (approved antibody) was “low nanomolar range”. Further, the t1/2 in data set [6] is 10.6 days.
